# Assays:
# [1] = Shuttle-box, acquisition of two-way conditioned avoidance reflex; assay type: in vivo
# Method: The acquisition of a two-way conditioned avoidance reflex (CAR) was analyzed in the shuttle-box during 5 consecutive days. […] It consists of six boxes, each is separated inside by a barrier with a small gate in the middle. […] They were given 100 trials per day. One trial consisted of 15 s intertrial interval, followed by 15 s CS. The last 5 s of CS overlapped the first s of US. At each learning session the number of CAR and intersignal reactions (IR) was automatically counted and evaluated by multiway analysis of variance (ANOVA).
# [2] = Effect on basal metabolism (O2 consumption); assay type: in vivo, rats; details: urethane 0.6 g/kg i.p., 30° C.
# Method: The O2 consumption of rats was measured by the method of Issekutz and Issekutz (1952) at constant temperature (30° C.).
# O2 consumption of the animals was expressed in ml/h and calculated for body surface, and given finally in ml/h/dm^2. Following injection of urethane and the basal O2 consumption was measured during 30 minutes. This was followed by the injection of the test substance and O2 consumption was registered immediately afterwards. The difference between the highest O2 consumption and the basal value was expressed in percent.
# O2 consumption of the animals was calculated according to the following equation: [formula] V=2000 cm^3 P=pressure fall (mmHg)
# T=period of measurement (h)
# O2 consumption was calculated for body surface and expressed as ml/dm^2 /h. Body surface was calculated on the basis of the "Diack" formula: […]
# [3] = Measurement of motility in the shuttle-box; assay type: in vivo; details: 30-minute observation
# Method: The apparatus described in the shuttle-box test is used also for investigating the motility of animals. In case of motility experiment all the stimuli are switched off and the animals are allowed to move freely from one compartment of the box to the other. […] Significancy is calculated by Student's test for two means.
# malaria = details: cited from earlier work
# [4] = Central nervous depressant effect
# [5] = Screening test: one session conditioning / unconditioned reflex, glass cylinder jump; assay type: in vivo, rats
# Method: Was elaborated for studying learning and retention of rats during one session conditioning.
# During conditioning rats are trained to jump onto the top of glass cylinder by the electric foot-shock (110 V). The escape reaction (unconditioned reflex, UR) is paired with a bell as conditioned stimulus. The criterion of learning is that conditioned reflex (CR) should be elicited 10 times with 10 s intervals without reinforcement. Retention of CR is taken positive when 24 h following the experiment CR can be elicited. In these experiments animals are distributed into 4 categories on the basis of their learning ability.
# benzodiazepine receptor = experiment: Benzodiazepine (BZD) receptor binding, 3H-diazepam displacement, crude cortical membrane preparation
# Method: For the studies of benzodiazepine /BZD) receptor binding crude cortical membrane preparation was used. […] ^3 H-diazepam was incubated with the membrane for 1 hr at 0° C. in TRIS-citrate buffer, pH 6.8. Specific binding was determined in the presence of 10 μM diazepam. In displacement studies chlordiazepoxide was used as control drug.
structure (smiles),measurement,setting,value
"Cc1nc2cnc3ccccc3c2s1.Cl [A compound, 2-methyl-thiazolo[4,5-c]quinoline-hydrochloride]","acquisition of conditioned reflex, number of positive responses (F)","[1]; 5 mg/kg s.c., day 1",17.8
same,number of intersignal reactions (IR),"[1]; 5 mg/kg s.c., day 1",9.5
same,number of negative responses (-f),"[1]; 5 mg/kg s.c., day 1",14.4
same,"acquisition of conditioned reflex, number of positive responses (F)","[1]; 5 mg/kg s.c., day 2",29.6
same,number of intersignal reactions (IR),"[1]; 5 mg/kg s.c., day 2",8.9
same,number of negative responses (-f),"[1]; 5 mg/kg s.c., day 2",23.0
same,"acquisition of conditioned reflex, number of positive responses (F)","[1]; 5 mg/kg s.c., day 3",24.3
same,number of intersignal reactions (IR),"[1]; 5 mg/kg s.c., day 3",3.2
same,number of negative responses (-f),"[1]; 5 mg/kg s.c., day 3",24.6
same,"acquisition of conditioned reflex, number of positive responses (F)","[1]; 5 mg/kg s.c., day 4",23.0
same,number of intersignal reactions (IR),"[1]; 5 mg/kg s.c., day 4",2.9
same,number of negative responses (-f),"[1]; 5 mg/kg s.c., day 4",25.4
same,"acquisition of conditioned reflex, number of positive responses (F)","[1]; 5 mg/kg s.c., day 5",29.4
same,number of intersignal reactions (IR),"[1]; 5 mg/kg s.c., day 5",2.3
same,number of negative responses (-f),"[1]; 5 mg/kg s.c., day 5",27.5
same,"acquisition of conditioned reflex, number of positive responses (F)","[1]; 10 mg/kg s.c., day 1",12.0
same,number of intersignal reactions (IR),"[1]; 10 mg/kg s.c., day 1",8.9
same,number of negative responses (-f),"[1]; 10 mg/kg s.c., day 1",70.4
same,"acquisition of conditioned reflex, number of positive responses (F)","[1]; 10 mg/kg s.c., day 2",14.7
same,number of intersignal reactions (IR),"[1]; 10 mg/kg s.c., day 2",7.3
same,number of negative responses (-f),"[1]; 10 mg/kg s.c., day 2",55.3
same,"acquisition of conditioned reflex, number of positive responses (F)","[1]; 10 mg/kg s.c., day 3",7.2
same,number of intersignal reactions (IR),"[1]; 10 mg/kg s.c., day 3",2.7
same,number of negative responses (-f),"[1]; 10 mg/kg s.c., day 3",58.2
same,"acquisition of conditioned reflex, number of positive responses (F)","[1]; 10 mg/kg s.c., day 4",5.5
same,number of intersignal reactions (IR),"[1]; 10 mg/kg s.c., day 4",2.1
same,number of negative responses (-f),"[1]; 10 mg/kg s.c., day 4",66.8
same,"acquisition of conditioned reflex, number of positive responses (F)","[1]; 10 mg/kg s.c., day 5",7.3
same,number of intersignal reactions (IR),"[1]; 10 mg/kg s.c., day 5",2.1
same,number of negative responses (-f),"[1]; 10 mg/kg s.c., day 5",68.2
same,"acquisition of conditioned reflex, number of positive responses (F)","[1]; 25 mg/kg s.c., day 1",7.0
same,number of intersignal reactions (IR),"[1]; 25 mg/kg s.c., day 1",10.7
same,number of negative responses (-f),"[1]; 25 mg/kg s.c., day 1",83.6
same,"acquisition of conditioned reflex, number of positive responses (F)","[1]; 25 mg/kg s.c., day 2",6.6
same,number of intersignal reactions (IR),"[1]; 25 mg/kg s.c., day 2",5.7
same,number of negative responses (-f),"[1]; 25 mg/kg s.c., day 2",85.1
same,"acquisition of conditioned reflex, number of positive responses (F)","[1]; 25 mg/kg s.c., day 3",2.6
same,number of intersignal reactions (IR),"[1]; 25 mg/kg s.c., day 3",4.4
same,number of negative responses (-f),"[1]; 25 mg/kg s.c., day 3",94.3
same,"acquisition of conditioned reflex, number of positive responses (F)","[1]; 25 mg/kg s.c., day 4",1.6
same,number of intersignal reactions (IR),"[1]; 25 mg/kg s.c., day 4",3.8
same,number of negative responses (-f),"[1]; 25 mg/kg s.c., day 4",93.8
same,"acquisition of conditioned reflex, number of positive responses (F)","[1]; 25 mg/kg s.c., day 5",3.1
same,number of intersignal reactions (IR),"[1]; 25 mg/kg s.c., day 5",4.2
same,number of negative responses (-f),"[1]; 25 mg/kg s.c., day 5",95.0
same,rate of metabolism / O2 consumption,[2],slightly
same,motility (spontaneous crossings of the gate),[3],slight motility decreasing effect
"Cc1nc2cnc3ccccc3c2s1 [Formula I, 2-methyl-thiazolo[4,5-c]quinoline]",effect against malaria,malaria,completely ineffective against malaria
same,central nervous depressant effect,[4],significantly stronger central depressant effect than benzodiazepines
same,escape of animals in the one session unconditioned reflex test,[5]; even in high doses,enables the escape of animals
same,inhibition of non-specific activation mechanisms,"[5]; rat, in vivo",does not inhibit non-specific activation mechanisms
same,spasmolytic effect,Spasmolytic effect,void of any spasmolytic effect
same,binding by benzodiazepine receptors,benzodiazepine receptor,not bound by benzodiazepine receptors
same,displacement of 3H-diazepam specific binding,"benzodiazepine receptor; crude cortical membrane, 1 hr, 0° C., TRIS-citrate buffer, pH 6.8",even in high concentration did not alter the specific binding of ^3 H-diazepam

# — US4778811A, “Pharmaceutical compositions of 2-methyl-thiazolo[4,5-c]quinoline” (EGIS Gyogyszergyar, priority 1985, dated 1988)
